Assay results as given in patent US7994127B2, “Treatment of rett syndrome” (Massachusetts Institute of Technology, priority 2007, dated 2011).

How the values were obtained:
[1] = test system: layer 5 pyramidal neurons of MeCP2−/y mice; test: Intracellular whole-cell recordings of spontaneous EPSCs in acute cortical slices; format: ex vivo, mouse
Description: (1-3)IGF-1 treatment: For the survival measurements, the nocturnal activity analysis and the immunoblot analysis, (1-3) IGF-1 (Bachem Biosciences # H22468) was administered daily via intra-peritoneal injections (0.01 mg/g body weight, vehicle=saline, 0.01% BSA). The treatment was started at P15 and maintained throughout the course of the experiments. For intracellular physiology experiments, the mice were injected daily (0.01 mg/g body weight, vehicle=saline, 0.01% BSA) for 2 weeks, from P15 to P28-P32 when they were used for acute slice preparation. For optical imaging experiments, mice were injected with (1-3) IGF-1 (0.02 mg/g body weight, vehicle=saline, 0.01% BSA) daily from the day of the lid suture to the day of imaging. Slice physiology preparation: Coronal sections (300 μm thick) at or near sensorimotor cortex were cut in <4° C. ACSF using a Vibratome. Slices were incubated at 37° C. for 20 minutes after slicing, and at room temperature for the remainder of the experiment. Slices were transferred to a Warner chamber and recordings were taken from visually identified pyramidal neurons located in layer 5. Artificial cerebral spinal fluid (ACSF) contained 126 mM NaCl, 25 mM NaHCO3, 1 mM NaHPO4, 3 mM KCl, 2 mM MgSO4, 2 mM CaCl2, and 14 mM dextrose, was adjusted to 315-320 mOsm and 7.4 pH, and was bubbled with 95% O2/5% CO2. The intracellular pipette solution contained 100 mM potassium gluconate, 20 mM KCl, 10 mM HEPES, 4 mM MgATP, 0.3 mM NaGTP, and 10 mM Na-phosphocreatine. […] Cells were visualized with an Achroplan 40× water-immersion lens with infrared-DIC optics (Zeiss) and detected with an infrared camera (Hamamatsu) projecting to a video monitor. […] Then in current clamp ˜10 pulses (500 ms, 40-140 pA at 10 pA increments), were applied to quantify evoked firing rates and cellular excitability. […] Analysis was performed using a custom software package written in Matlab, with all events detected according to automated thresholds and blindly verified for each event individually by the experimenter. […]

[2] = test system: visual cortex of adult MeCP2+/− mice; test: Ocular dominance plasticity after monocular deprivation, optical imaging of intrinsic signals; format: in vivo, mouse
BDNF = BDNF expression (mRNA micro-array, proBDNF staining) in V1 during monocular deprivation; format: in vivo, mouse; settings: mice subjected to MD and treated; vs MD and control
Description: A: Effects of (1-3)IGF-1 (GPE) treatment on the expression levels of BDNF at mRNA level. […] (1-3)IGF-1 treatment is able to increase expression though not to control levels. The RNA levels were obtained with the micro-array analysis described in Tropea et al., 2006. B: Double staining for NeuN (green) and proBDNF (red) antibody. […] Anti-pro BDNF and anti-NeuN were obtained from CHEMICON and used at a concentration of 1:500. The solutions and time of incubations are the following: preincubation in 5% BSA, 0.1% triton, 10% serum, PBS. Incubation with the primary antibodies was carried out at 4 degrees for 3 days in the following solution: 2% BSA, 5% serum, 0.1% triton, PBS. After washings in PBS secondary biotinylated (for pro-BDNF) or Alexa conjugated (for NeuN) antibodies (1:200) were incubated for 2 hours in the same solution of the primary antibodies. The pro-BDNF labeling was detected by adding extravidine tritc (Sigma—1:300). C: Effects of (1-3)IGF-1 (GPE) treatment on the mRNA expression levels of tPA. […] Anti-tPA was purchased from Oxford Biomedical Research and used at a concentration of 1:500. The conditions for incubation were the following: free floating sections were pre-incubated in blocking solution: 10% serum, 0.3% triton, PBS and then left overnight in the primary antibody mix: 1% serum, 0.3% triton, PBS, anti-tPA 1:500, anti Neu-N 1:500. […]

[3] = in vivo; cited from earlier work

NCC(=O)N1CCC[C@H]1C(=O)N[C@@H](CCC(=O)O)C(=O)O [(1-3)IGF-1, glycyl-L-prolyl-L-glutamic acid]
mean EPSC amplitude per neuron, across all cells (FIG. 1C) ([1]; KO-T compared to KO, treated two weeks, mice 28-32 days old): modestly but significantly increased | spontaneous EPSC amplitude (FIG. 1B) ([1]; MeCP2−/y mice, 0.01 mg/g body weight IP daily for 2 weeks, P15 to P28-P32, vs vehicle-treated MeCP2−/y): significantly larger in amplitude | distributions of intervals between EPSC events (EPSC frequency, FIG. 1D) ([1]; between WT, and KO and KO-T groups): subtly but significantly modified | maturation of cortical circuitry during ocular dominance plasticity (FIG. 9B) ([2]; (1-3)IGF-1 as in Example 1): promoted to similar degrees | ocular dominance plasticity (ODI shift after MD, FIG. 3C-D) ([2]; female MeCP2+/− mice P60 or more, MD 4 days, 0.02 mg/g body weight IP daily during MD): prevented the OD plasticity | BDNF mRNA expression level in contralateral V1 (FIG. 8A) (BDNF): increase expression in animals subjected to MD, though not to control levels | BDNF protein expression, proBDNF staining (FIG. 8B) (BDNF): increasing BDNF protein expression, though not to control levels | crossing the blood-brain barrier [3]: capable of crossing the blood-brain barrier
